Laboratory results: ChEMBL document CHEMBL3885861, “Open TG-GATES”

Organism: Rattus norvegicus
Assay: Open TG-GATES - Regimen: Daily Repeat
Type: toxicity, organism-based, Sprague-Dawley
Parameters: regimen Daily Repeat, gender Male, age 6 weeks
Conditions: in vivo, po, route gavage; for TP / gamma-GTP / ALP / ALT / AST / BUN / CRE / DBIL / GLC / IP / K / LDH / Na / PL / RALB / TBIL / TC / TG: tissue Plasma; for APTT / Bas / Eos / Fbg / Ht / Lym / MCH / MCHC / MCV / Mono / Neu / Plat / RBC / Ret / WBC: tissue Blood
[1] = 45 mg/kg, […], dose level Low, time 28 day
[2] = 150 mg/kg, 72 h, dose level Middle, time 3 day
[3] = 150 mg/kg, […], dose level Middle, time 7 day
[4] = 150 mg/kg, […], dose level Middle, time 14 day
[5] = 150 mg/kg, […], dose level Middle, time 28 day
[6] = 450 mg/kg, 72 h, dose level High, time 3 day
[7] = 450 mg/kg, […], dose level High, time 7 day
[8] = 450 mg/kg, […], dose level High, time 14 day
[9] = 450 mg/kg, […], dose level High, time 28 day

Compound: CCCC(CCC)C(=O)O [VALPROIC ACID]
- TP [1]: 5.9 g/dL
- gamma-GTP [1]: 0.6 IU/L
- TERMINAL_BW [2]: 227 g
- APTT [2]: 19.8 s
- Bas [2]: 0%
- Eos [2]: 1%
- Fbg [2]: 219.8 mg/dL
- Ht [2]: 38.6%
- Lym [2]: 78%
- MCH [2]: 21.6 pg
- MCHC [2]: 34.3%
- MCV [2]: 62.9 fL
- Mono [2]: 3.8%
- Neu [2]: 17%
- Plat [2]: 140.1 x10_4/uL
- RBC [2]: 614.2 x10_4/ul
- Ret [2]: 6.8%
- WBC [2]: 106.9 x10_2/uL
- ALP [2]: 920.6 IU/L
- ALT [2]: 40 IU/L
- AST [2]: 73.6 IU/L
- BUN [2]: 16.2 mg/dL
- CRE [2]: 0.4 mg/dL
- DBIL [2]: 0.074 mg/dL
- GLC [2]: 211.4 mg/dL
- IP [2]: 7.9 mg/dL
- K [2]: 3.8 meq/L
- LDH [2]: 179.2 IU/L
- Na [2]: 141.4 meq/L
- PL [2]: 148.6 mg/dL
- RALB [2]: 3.3 g/dL
- TBIL [2]: 0.1 mg/dL
- TC [2]: 76.8 mg/dL
- TG [2]: 73 mg/dL
- TP [2]: 5.4 g/dL
- gamma-GTP [2]: 1.2 IU/L
- TERMINAL_BW [3]: 255.5 g
- TERMINAL_BW [4]: 311.1 g
- TERMINAL_BW [5]: 400.1 g
- APTT [3]: 19.5 s
- Bas [3]: 0%
- Eos [3]: 1.2%
- Fbg [3]: 219.6 mg/dL
- Ht [3]: 40.1%
- Lym [3]: 81%
- MCH [3]: 20.8 pg
- MCHC [3]: 33.9%
- MCV [3]: 61.3 fL
- Mono [3]: 3.4%
- Plat [3]: 129.5 x10_4/uL
- RBC [3]: 655 x10_4/ul
- Ret [3]: 5.7%
- WBC [3]: 106 x10_2/uL
- APTT [4]: 18.7 s
- Bas [4]: 0%
- Eos [4]: 1%
- Fbg [4]: 216.8 mg/dL
- Ht [4]: 42.3%
- Lym [4]: 83.2%
- MCH [4]: 20.6 pg
- MCHC [4]: 35%
- MCV [4]: 58.9 fL
- Mono [4]: 2.6%
- Neu [4]: 13.2%
- Plat [4]: 108.8 x10_4/uL
- RBC [4]: 720 x10_4/ul
- Ret [4]: 4%
- WBC [4]: 93.8 x10_2/uL
- APTT [5]: 19.7 s
- Bas [5]: 0%
- Eos [5]: 1.4%
- Fbg [5]: 214.2 mg/dL
- Ht [5]: 42.1%
- Lym [5]: 83.2%
- MCH [5]: 19 pg
- MCHC [5]: 35.2%
- MCV [5]: 53.9 fL
- Mono [5]: 2.6%
- Neu [5]: 12.4%
- Plat [5]: 116.1 x10_4/uL
- RBC [5]: 781.6 x10_4/ul
- Ret [5]: 2.3%
- WBC [5]: 89.2 x10_2/uL
- ALP [3]: 816 IU/L
- ALT [3]: 29.8 IU/L
- AST [3]: 59.2 IU/L
- BUN [3]: 15.4 mg/dL
- CRE [3]: 0.4 mg/dL
- DBIL [3]: 0.078 mg/dL
- GLC [3]: 220.6 mg/dL
- IP [3]: 7.2 mg/dL
- K [3]: 3.7 meq/L
- LDH [3]: 194.4 IU/L
- Na [3]: 140.6 meq/L
- RALB [3]: 3.4 g/dL
- TBIL [3]: 0.1 mg/dL
- TC [3]: 69.4 mg/dL
- TG [3]: 109.4 mg/dL
- TP [3]: 5.6 g/dL
- gamma-GTP [3]: 1.4 IU/L
- ALP [4]: 877.8 IU/L
- ALT [4]: 34.4 IU/L
- AST [4]: 64.2 IU/L
- BUN [4]: 16.6 mg/dL
- CRE [4]: 0.4 mg/dL
- DBIL [4]: 0.082 mg/dL
- GLC [4]: 218.2 mg/dL
- IP [4]: 7.9 mg/dL
- K [4]: 3.8 meq/L
- LDH [4]: 176.8 IU/L
- Na [4]: 140.4 meq/L
- PL [4]: 153.2 mg/dL
- RALB [4]: 3.4 g/dL
- TBIL [4]: 0.1 mg/dL
- TC [4]: 69.4 mg/dL
- TG [4]: 123 mg/dL
- TP [4]: 5.8 g/dL
- gamma-GTP [4]: 0.8 IU/L
- ALP [5]: 729.4 IU/L
- ALT [5]: 35 IU/L
- AST [5]: 65 IU/L
- BUN [5]: 17.6 mg/dL
- CRE [5]: 0.4 mg/dL
- DBIL [5]: 0.1 mg/dL
- GLC [5]: 208.2 mg/dL
- IP [5]: 6.7 mg/dL
- K [5]: 3.9 meq/L
- LDH [5]: 178.4 IU/L
- Na [5]: 141 meq/L
- PL [5]: 142.4 mg/dL
- RALB [5]: 3.5 g/dL
- TBIL [5]: 0.2 mg/dL
- TC [5]: 66.6 mg/dL
- TG [5]: 130.4 mg/dL
- TP [5]: 6.1 g/dL
- gamma-GTP [5]: 0.6 IU/L
- TERMINAL_BW [6]: 225.2 g
- APTT [6]: 19.4 s
- Bas [6]: 0%
- Eos [6]: 1%
- Fbg [6]: 213.4 mg/dL
- Ht [6]: 38.5%
- Lym [6]: 79.2%
- MCH [6]: 21.5 pg
- MCHC [6]: 34.4%
- MCV [6]: 62.4 fL
- Mono [6]: 2.8%
- Neu [6]: 16.4%
- Plat [6]: 131.5 x10_4/uL
- RBC [6]: 618.2 x10_4/ul
- Ret [6]: 5.1%
- WBC [6]: 85.9 x10_2/uL
- ALP [6]: 765 IU/L
- ALT [6]: 31.2 IU/L
- AST [6]: 64.8 IU/L
- BUN [6]: 14.6 mg/dL
- CRE [6]: 0.4 mg/dL
- DBIL [6]: 0.07 mg/dL
- GLC [6]: 201.8 mg/dL
- IP [6]: 7.9 mg/dL
- K [6]: 3.7 meq/L
- LDH [6]: 197.2 IU/L
- Na [6]: 141.8 meq/L
- PL [6]: 136 mg/dL
- RALB [6]: 3.4 g/dL
- TBIL [6]: 0.1 mg/dL
- TC [6]: 67.2 mg/dL
- TG [6]: 64.8 mg/dL
- TP [6]: 5.5 g/dL
- gamma-GTP [6]: 1.2 IU/L
- TERMINAL_BW [7]: 257.7 g
- TERMINAL_BW [8]: 310.7 g
- TERMINAL_BW [9]: 375.7 g
- APTT [7]: 19.5 s
- Bas [7]: 0%
- Eos [7]: 0.8%
- Fbg [7]: 209.8 mg/dL
- Ht [7]: 39.4%
- Lym [7]: 78.8%
- MCH [7]: 21.1 pg
- MCHC [7]: 34.2%
- MCV [7]: 61.7 fL
- Mono [7]: 4.2%
- Plat [7]: 114.2 x10_4/uL
- RBC [7]: 639.6 x10_4/ul
- Ret [7]: 6%
- WBC [7]: 111.1 x10_2/uL
- APTT [8]: 18.5 s
- Bas [8]: 0%
- Eos [8]: 0.8%
- Fbg [8]: 226.2 mg/dL
- Ht [8]: 41.6%
- Lym [8]: 84%
- MCH [8]: 20.2 pg
- MCHC [8]: 34.6%
- MCV [8]: 58.4 fL
- Mono [8]: 3.6%
- Neu [8]: 10.6%
- Plat [8]: 116.8 x10_4/uL
- RBC [8]: 712.6 x10_4/ul
- Ret [8]: 4.7%
- WBC [8]: 84.9 x10_2/uL
- APTT [9]: 20.4 s
- Bas [9]: 0%
- Eos [9]: 1%
- Fbg [9]: 201 mg/dL
- Ht [9]: 41.7%
- Lym [9]: 85%
- MCH [9]: 19.1 pg
- MCHC [9]: 34.7%
- MCV [9]: 55.1 fL
- Mono [9]: 3%
- Neu [9]: 10%
- Plat [9]: 101.4 x10_4/uL
- RBC [9]: 757 x10_4/ul
- Ret [9]: 2.4%
- WBC [9]: 78.5 x10_2/uL
- ALP [7]: 901.6 IU/L
- ALT [7]: 35.2 IU/L
- AST [7]: 65.6 IU/L
- BUN [7]: 16.2 mg/dL
- CRE [7]: 0.4 mg/dL
- DBIL [7]: 0.082 mg/dL
- GLC [7]: 217.6 mg/dL
- IP [7]: 7.5 mg/dL
- K [7]: 3.9 meq/L
- LDH [7]: 204.2 IU/L
- Na [7]: 139.4 meq/L
- PL [7]: 132.8 mg/dL
- RALB [7]: 3.3 g/dL
- TBIL [7]: 0.1 mg/dL
- TC [7]: 62 mg/dL
- TG [7]: 94.4 mg/dL
- TP [7]: 5.6 g/dL
- gamma-GTP [7]: 1.4 IU/L
- ALP [8]: 786 IU/L
- ALT [8]: 33 IU/L
- AST [8]: 64.6 IU/L
- BUN [8]: 17 mg/dL
- CRE [8]: 0.4 mg/dL
- DBIL [8]: 0.086 mg/dL
- GLC [8]: 207.6 mg/dL
- IP [8]: 6.9 mg/dL
- K [8]: 3.7 meq/L
- LDH [8]: 189.2 IU/L
- Na [8]: 140.2 meq/L
- PL [8]: 140.4 mg/dL
- RALB [8]: 3.4 g/dL
- TBIL [8]: 0.1 mg/dL
- TC [8]: 65 mg/dL
- TG [8]: 101 mg/dL
- TP [8]: 5.7 g/dL
- gamma-GTP [8]: 1.6 IU/L
- ALP [9]: 583.2 IU/L
- ALT [9]: 29.2 IU/L
- AST [9]: 62.8 IU/L
- BUN [9]: 17.8 mg/dL
- CRE [9]: 0.5 mg/dL
- DBIL [9]: 0.078 mg/dL
- GLC [9]: 198.8 mg/dL
- IP [9]: 5.9 mg/dL
- K [9]: 3.9 meq/L
- LDH [9]: 209.8 IU/L
- Na [9]: 140.4 meq/L
- PL [9]: 126.6 mg/dL
- RALB [9]: 3.4 g/dL
- TBIL [9]: 0.1 mg/dL
- TC [9]: 55.4 mg/dL
- TG [9]: 98.4 mg/dL
- TP [9]: 5.7 g/dL
- gamma-GTP [9]: 1 IU/L
